Data on five molecules can be found in patent US10006020B2 (LESAFFRE ET COMPAGNIE, priority 2008, dated 2018).

Usually Ki stands for the dissociation constant of the complex between target and ligand, obtained from inhibition or displacement. A higher Ki goes with lower affinity. The term Km denotes the concentration of substrate that gives half-maximal velocity.

Data set [1] concerns Piromyces sp. E2 xylose isomerase. The conditions noted are these: result in words, prior art; cited from earlier work.
For data set [2], the target named is Piromyces sp. E2 xylose isomerase, codon-optimized (plasmid p426H7-opt.XI-Piro) (Piromyces sp. E2, UniProt A0ACD6B9F5). Kind of data set: Xylitol inhibition of the xylose isomerase, comparison enzyme. In kind it is biochemical.
Piromyces sp. E2 xylose isomerase, codon-optimized (plasmid p426H7-opt.XI-Piro), sequence (A0ACD6B9F5 1-437): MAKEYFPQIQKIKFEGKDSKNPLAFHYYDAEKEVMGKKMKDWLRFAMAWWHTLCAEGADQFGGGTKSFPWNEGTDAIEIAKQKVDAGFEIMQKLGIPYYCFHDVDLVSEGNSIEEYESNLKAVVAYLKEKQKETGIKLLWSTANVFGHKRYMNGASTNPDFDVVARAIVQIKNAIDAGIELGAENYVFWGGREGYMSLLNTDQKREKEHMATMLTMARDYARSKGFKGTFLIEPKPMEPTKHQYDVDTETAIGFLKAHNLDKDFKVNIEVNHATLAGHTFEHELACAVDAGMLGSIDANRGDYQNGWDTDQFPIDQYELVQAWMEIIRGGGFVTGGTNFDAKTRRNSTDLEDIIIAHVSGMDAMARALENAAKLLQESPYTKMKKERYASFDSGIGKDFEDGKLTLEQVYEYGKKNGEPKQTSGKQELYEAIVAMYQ
Data set [3] deals with T1, Clostridium phytofermentans xylose isomerase, codon-optimized form (plasmid p426H7-opt.XI-Clos; protein SEQ ID NO: 1, ORF SEQ ID NO: 3) (Lachnoclostridium phytofermentans, UniProt A9KN98). Kind of data set: Xylitol inhibition of the xylose isomerase, codon-optimized XI gene. In kind it is biochemical. The protocol: (§1) 50 ml of cultures of yeast cells were grown to the exponential phase in synthetic minimal medium with 2% glucose. The cells were harvested, washed twice in Tris-HCl buffer (pH 7.5) and disrupted by means of glass beads (Ø=[…]) for 8 min on a Vibrax (Janke & Kunkel, Vibrax-VBR) at 4° C. Cell debris was removed by centrifugation for 10 min at 13,000 rpm. Subsequently, the supernatant was collected and filled up to 2 ml with cold Tris-HCl buffer (pH 7.5) and used as a raw extract for the protein determination and for the measurement of the enzyme activities or the xylitol inhibition.
(§2) Recombinant yeast cells with the vector p426H7-opt.XI-Piro or the vector p426HXT7-6HIS, respectively, served as a comparison. […] The acceptance of NADH as a measured variable was determined spectrophotometrically at a wave length of 340 nm. The reaction was started by adding xylose. […]
(§3) K was determined via the equation Km′=Km′=Km*(1+i/Ki), i being the xylitol concentration used and Km′ being the apparent Km value at the corresponding xylitol concentration.
(§4) The strain CEN.PK2-1C transformed with the plasmid p426H7-opt.XI-Clos and p426H7-opt.XI-Piro, respectively, was grown over night in synthetic complete medium with 2% glucose and no uracil. Raw extracts were prepared and quantitative enzyme tests with constant xylitol concentrations of 10-100 mM were performed.

In data set [4] the target is T2, Clostridium phytofermentans xylose isomerase (SEQ ID NO: 1) (Lachnoclostridium phytofermentans, UniProt A9KN98).
T2 construct: raw extract
Put plainly: Xylitol inhibition of the xylose isomerase (method names p426H7-XI-Clos). In kind it is biochemical.

Data set [5] addresses Clostridium phytofermentans xylose isomerase, native form (plasmid p426H7-XI-Clos; protein SEQ ID NO: 1, ORF SEQ ID NO: 2) (Lachnoclostridium phytofermentans, UniProt A9KN98). Put plainly: Xylose isomerase activity, enzyme kinetics with xylose (raw extract, sorbitol dehydrogenase coupled, NADH 340 nm), native XI gene. The conditions noted are these: xylose 6.25-500 mM, 30° C. In kind it is biochemical. The protocol:
(§5) The strain CEN.PK2-1C transformed with the plasmid p426H7-XI-Clos and p426H7-opt.XI-Clos, respectively, was grown over night in synthetic complete medium with 2% glucose and no uracil. Raw extracts were prepared and quantitative enzyme tests were performed. A representative result is shown. The values indicated in table 3 are average values from at least 3 independent measurements.
(§6) 50 ml of cultures of yeast cells were grown to the exponential phase in synthetic minimal medium with 2% glucose. The cells were harvested, washed twice in Tris-HCl buffer (pH 7.5) and disrupted by means of glass beads (Ø=[…]) for 8 min on a Vibrax (Janke & Kunkel, Vibrax-VBR) at 4° C. Cell debris was removed by centrifugation for 10 min at 13,000 rpm. […]
(§7) Recombinant yeast cells containing the empty vector p426HXT7-6HIS served as a comparison. […] The acceptance of NADH as a measured variable was determined spectrophotometrically at a wave length of 340 nm. […]
(§8) The strain CEN.PK2-1C transformed with the plasmid p426H7-XI-Clos and p426H7-opt.XI-Clos, respectively, was grown over night in synthetic complete medium with 2% glucose and no uracil. Raw extracts were prepared and quantitative enzyme tests were performed.

Data set [6] deals with T1, Clostridium phytofermentans xylose isomerase, codon-optimized form (plasmid p426H7-opt.XI-Clos; protein SEQ ID NO: 1, ORF SEQ ID NO: 3). Kind of data set: Xylose isomerase activity, enzyme kinetics with xylose (raw extract, sorbitol dehydrogenase coupled, NADH 340 nm), codon-optimized XI gene. The data set is classed as biochemical. The settings on record: table 3; xylose 6.25-500 mM, 30° C., pH 7.5, raw extract. The protocol:
as §5, §6, §7, §8

Substrate in data set [7]: OC1OC[C@@H](O)[C@H](O)[C@H]1O
Put plainly: purified protein, by the assay type. The conditions noted are these: other: xylose 6.25-500 mM, 30° C., pH 7.5, raw extract of CEN.PK2-1C.

A further data set deals with yeast strain MKY09. Put plainly: Growth test on agar plates with SC medium and 2% xylose as only carbon source. The data set is classed as cell-based, S. cerevisiae. The conditions noted are these: SC medium. From the text:
Growth tests of recombinant S. cerevisiae strains, which include the bacterial D-xylose metabolism with the xylose isomerase from C. phytofermentans. […] The empty vector p426HXT7-6HIS (5A) served as the negative control.
In the yeast strain CEN.PK2-1C, all the genes of the non-oxidative pentose phosphate pathway as well as the xylulokinase (XKS1) and GAL2 were overexpressed. To this end, the endogenous promoters were replaced with the truncated HXT7 promoter.
The obtained PCR products were together with the vector p426HXT7-6HIS linearized with EcoRI/BamHI transformed in yeast and cloned via in vivo recombination into the plasmid between the HXT7 promoter or CYC1 terminator, respectively (FIG. 4). The sequence of the plasmids obtained was verified by means of restriction analysis. […] However, it was not possible to amplify the desired PCR product with the xylose isomerase from the organisms Streptomyces diastaticus and Leifsonia xyli. Both xylose isomerases thus could not be tested on functionality in yeast.
To this end, the codon-optimized XI-ORF was amplified with primers and cloned into the linearized vector p426HXT7-6HIS (see “Execution of the screen”). The sequence of the obtained plasmid p426H7-opt.XI-Clos was verified by means of restriction analysis. To test the functionality of the codon-optimized isomerase, the plasmid p426H7-opt.XI-Clos was transformed in the strain MKY09. […]

In data set [8] the test system is xylose isomerase from C. phytofermentans. Put plainly: Measurement of the xylitol inhibition of the xylose isomerase (raw extracts). In kind it is biochemical, Clostridium phytofermentans. The settings on record: from the determined Ki values. The protocol:
as §1, §2, §3, §4

Entries after “also recorded” stand apart in the source; their conditions may differ.

On to `OC[C@@H](O)[C@H](O)[C@@H](O)CO` [xylitol], for which, in data set [1], the inhibition by xylitol entry was “strongly inhibited”. Also, the Ki in data set [2] came out at 4.67 ± 1.77 mM; in data set [3], 14.5 ± 1.08 mM; in data set [4], 14.2 ± 1.48 mM. In addition, the xylitol inhibition entry in data set [4] (result in words) is listed as “competitive inhibition; also recorded: significantly less inhibited by xylitol than the xylose isomerase from Piromyces sp.E2; also recorded: only slightly inhibited”.

Regarding `OC1OC[C@@H](O)[C@H](O)[C@H]1O` (some centres unmarked) [xylose], the Vmax is given as 0.0076 μmol/min^−1 protein^−1) mg in data set [5] (table 3, pH 7.5, raw extract) and 0.0344 μmol/min^−1 protein^−1) mg in data set [6]. Moreover, the Km in [5] (pH 7.5, raw extract of CEN.PK2-1C) turned out to be 61.8 ± 3.4 mM.

B1: Clostridium phytofermentans xylose isomerase, native form (plasmid p426H7-XI-Clos; protein SEQ ID NO: 1, ORF SEQ ID NO: 2) (Lachnoclostridium phytofermentans … (protein)
chain: MKNYFPNVPEVKYEGPNSTNPFAFKYYDANKVVAGKTMKEHCRFALSWWHTLCAGGADPFGVTTMDRTYGNITDPMELAKAKVDAGFELMTKLGIEFFCFHDADIAPEGDTFEESKKNLFEIVDYIKEKMDQTGIKLLWGTANNFSHPRFMHGASTSCNADVFAYAAAKIKNALDATIKLGGKGYVFWGGREGYETLLNTDLGLELDNMARLMKMAVEYGRANGFDGDFYIEPKPKEPTKHQYDFDTATVLAFLRKYGLEKDFKMNIEANHATLAGHTFEHELAMARVNGAFGSVDANQGDPNLGWDTDQFPTDVHSATLAMLEVLKAGGFTNGGLNFDAKVRRGSFEFDDIAYGYIAGMDTFALGLIKAAEIIDDGRIAKFVDDRYASYKTGIGKAIVDGTTSLEELEQYVLTHSEPVMQSGRQEVLETIVNNILFR
With B1, in data set [7], the Km worked out at 61.85 ± 3.41 mM and the Vmax worked out at 0.0076 μmol/min^−1 mg protein^−1.

B2: Clostridium phytofermentans xylose isomerase, codon-optimized form (plasmid p426H7-opt.XI-Clos; protein SEQ ID NO: 1, ORF SEQ ID NO: 3) (Lachnoclostridium … (protein)
chain: MKNYFPNVPEVKYEGPNSTNPFAFKYYDANKVVAGKTMKEHCRFALSWWHTLCAGGADPFGVTTMDRTYGNITDPMELAKAKVDAGFELMTKLGIEFFCFHDADIAPEGDTFEESKKNLFEIVDYIKEKMDQTGIKLLWGTANNFSHPRFMHGASTSCNADVFAYAAAKIKNALDATIKLGGKGYVFWGGREGYETLLNTDLGLELDNMARLMKMAVEYGRANGFDGDFYIEPKPKEPTKHQYDFDTATVLAFLRKYGLEKDFKMNIEANHATLAGHTFEHELAMARVNGAFGSVDANQGDPNLGWDTDQFPTDVHSATLAMLEVLKAGGFTNGGLNFDAKVRRGSFEFDDIAYGYIAGMDTFALGLIKAAEIIDDGRIAKFVDDRYASYKTGIGKAIVDGTTSLEELEQYVLTHSEPVMQSGRQEVLETIVNNILFR
For the molecule B2, in data set [7], the Michaelis constant (Km) is on record as 66.01 ± 1^ mM and the Vmax worked out at 0.0344 μmol/min^−1 mg protein^−1.

B3: xylose isomerase from C. phytofermentans: prokaryotic xylose isomerase of Clostridium phytofermentans, protein SEQ ID NO: 1; gene form not specified at the place (protein)
chain: MKNYFPNVPEVKYEGPNSTNPFAFKYYDANKVVAGKTMKEHCRFALSWWHTLCAGGADPFGVTTMDRTYGNITDPMELAKAKVDAGFELMTKLGIEFFCFHDADIAPEGDTFEESKKNLFEIVDYIKEKMDQTGIKLLWGTANNFSHPRFMHGASTSCNADVFAYAAAKIKNALDATIKLGGKGYVFWGGREGYETLLNTDLGLELDNMARLMKMAVEYGRANGFDGDFYIEPKPKEPTKHQYDFDTATVLAFLRKYGLEKDFKMNIEANHATLAGHTFEHELAMARVNGAFGSVDANQGDPNLGWDTDQFPTDVHSATLAMLEVLKAGGFTNGGLNFDAKVRRGSFEFDDIAYGYIAGMDTFALGLIKAAEIIDDGRIAKFVDDRYASYKTGIGKAIVDGTTSLEELEQYVLTHSEPVMQSGRQEVLETIVNNILFR
modifications: Clostridium phytofermentans
notes: gene form not specified at the place
B3: the “growth on plates containing xylose” value in the data set on yeast strain MKY09 is “good growth”. Further, in data set [8], the “inhibition by xylitol compared with the xylose isomerase from Piromyces sp.E2” value is reported as “significantly less inhibited by xylitol”.
